Reference: US20240246954A1, “COMPOSITIONS AND METHODS FOR INHIBITING KRAS” (TheRas, Inc., priority 2021, published 2024)

Assays:
[1] = target: T1, Avi-KRAS G12D/Q25A (1-169) GppNHp/3×FLAG-PI3KCA (157-299) (Homo sapiens, UniProt P01116, G12D/Q25A); experiment: HTRF PI3KCA-KRAS G12D/Q25A-GppNHp disruption assay; format: biochemical; details: 1 h incubation
T1 construct: Avi-KRAS G12D/Q25A (1-169) GppNHp
Procedure, shortened: (§1)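 Compounds titrated from 100 μM in a 10-point series, incubated with protein mix 1 h at room temperature, then HTRF reagents a further 1 h. Time-resolved fluorescence read (excitation 320 nm, emission 615 nm); activity expressed as percentage of DMSO control.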

[2] = target: T2, Avi-KRAS G12D (1-169) GppNHp/RAF1 RBD-3×FLAG (52-151) (Homo sapiens, UniProt P01116, G12D); experiment: HTRF Raf1-KRAS G12D-GppNHp disruption assay; format: biochemical; details: 1 h incubation
T2 construct: Avi-KRAS G12D (1-169) GppNHp
Procedure, shortened: as §1

T1 sequence (P01116 1-169 isoform P01116-2 G12D/Q25A limits assumed): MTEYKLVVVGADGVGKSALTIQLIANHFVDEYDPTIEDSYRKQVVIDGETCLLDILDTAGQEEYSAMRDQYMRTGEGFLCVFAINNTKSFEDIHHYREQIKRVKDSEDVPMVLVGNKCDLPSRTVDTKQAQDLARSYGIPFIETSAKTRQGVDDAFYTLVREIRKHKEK
T2 sequence (P01116 1-169 isoform P01116-2 G12D limits assumed): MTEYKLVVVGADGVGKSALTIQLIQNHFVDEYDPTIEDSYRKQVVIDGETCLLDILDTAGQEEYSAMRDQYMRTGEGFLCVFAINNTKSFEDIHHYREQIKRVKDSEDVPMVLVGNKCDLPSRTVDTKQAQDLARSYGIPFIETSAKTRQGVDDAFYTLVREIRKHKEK

| SMILES | IC50 [1] | IC50 [2] |
| --- | --- | --- |
| Nc1nc2c(-c3c(OC(F)(F)F)cc4c(N5CCNCC5)nc(OCC56CCCN5CCC6)nc4c3F)ccc(F)c2s1 [Compound 228, 7-fluoro-4-(8-fluoro-4-(piperazin-1-yl)-2-((tetrahydro-1H-pyrrolizin-7a(5H)-yl)methoxy)-6-(trifluoromethoxy)quinazolin-7-yl)benzo[d]thiazol-2-amine] | 1 to 10 µM | 1000 to 10000 nM |
| C[C@@H]1CN(c2nc(OC[C@@]34CCCN3C[C@@H](F)C4)nc3c(F)c(-c4ccc(F)c5sc(N)nc45)c(C(F)(F)F)cc23)C[C@H](C)N1 [Compound 229] | 10 to 30 µM | 10000 to 30000 nM |
| CN(c1nc(OCC23CCCN2CCC3)nc2c(F)c(-c3ccc(F)c4sc(N)nc34)c(C(F)(F)F)cc12)[C@@H]1CCN(C(=O)C2CN2)C1 (some centres unmarked) [Compound 230] | 1 to 10 µM | 1000 to 10000 nM |
| Nc1nc2c(-c3c(OC(F)(F)F)cc4c(N5CC6CCC(C5)N6)nc(OCC56CCCN5CCC6)nc4c3F)ccc(F)c2s1 [Compound 231] | 1 to 10 µM | 1000 to 10000 nM |
| Nc1nc2c(-c3c(OC(F)(F)F)cc4c(N5CC6CCC(C5)N6)nc(OC[C@@]56CCCN5C[C@H](F)C6)nc4c3F)ccc(F)c2o1 [Compound 233] | 1 to 10 µM | 1000 to 10000 nM |
| Nc1nc2c(-c3c(OC(F)F)cc4c(N5CCNCC5)nc(OCC56CCCN5CCC6)nc4c3F)ccc(F)c2s1 [Compound 234, 4-(6-(difluoromethoxy)-8-fluoro-4-(piperazin-1-yl)-2-((tetrahydro-1H-pyrrolizin-7a(5H)-yl)methoxy)quinazolin-7-yl)-7-fluorobenzo[d]thiazol-2-amine] | 1 to 10 µM | 1000 to 10000 nM |
| Nc1nc2c(-c3c(C(F)(F)F)cc4c(NC5CN(C(=O)C6CN6)C5)nc(OCC56CCCN5CCC6)nc4c3F)ccc(F)c2s1 (centres unmarked) [Compound 235] | 10 to 30 µM | 1000 to 10000 nM |
| Nc1nc2c(-c3c(-c4ccoc4)cc4c(N5CC6CCC(C5)N6)nc(OC[C@@]56CCCN5C[C@H](F)C6)nc4c3F)ccc(F)c2s1 [Compound 237] | 1 to 10 µM | 100 to 1000 nM |
| Nc1nc2c(-c3c(C(F)(F)F)cc4c(N5CC6CC5CN6)nc(OC[C@@]56CCCN5C[C@H](F)C6)nc4c3F)ccc(F)c2s1 (some centres unmarked) [Compound 239] | 1 to 10 µM | 1000 to 10000 nM |
| Nc1nc2c(-c3c(OC(F)(F)F)cc4c(N5CC6CC5CN6)nc(OC[C@@]56CCCN5C[C@H](F)C6)nc4c3F)ccc(F)c2s1 (some centres unmarked) [Compound 240] | 1 to 10 µM | 1000 to 10000 nM |
| Nc1nc2c(-c3c(Cl)cc4c(N5CCCNCC5)ncnc4c3F)ccc(F)c2s1 [Compound 242] | 10 to 30 µM | 10000 to 30000 nM |
| Nc1nc2c(-c3c(Cl)cc4c(N5CC6CNC(C6)C5)ncnc4c3F)ccc(F)c2s1 (centres unmarked) [Compound 243] | 10 to 30 µM | 10000 to 30000 nM |
| CN1CC(C)(C)C[C@H]1COc1nc(N2CC3CCC(C2)N3)c2cc(C(F)(F)F)c(-c3ccc(F)c4sc(N)nc34)c(F)c2n1 [Compound 253] | 1 to 10 µM | 1000 to 10000 nM |
| Nc1nc2c(-c3c(C(F)(F)F)cc4c(NC5CC6CC[C@@H](C5)N6)nc(OCC56CCCN5CCC6)nc4c3F)ccc(F)c2s1 (some centres unmarked) [Compound 263] | 1 to 10 µM | 1000 to 10000 nM |
| Nc1nc2c(-c3c(C(F)(F)F)cc4c(NC5CC6CC[C@H]5N6)nc(OCC56CCCN5CCC6)nc4c3F)ccc(F)c2s1 (some centres unmarked) [Compound 265] | 1 to 10 µM | 100 to 1000 nM |
| Nc1nc2c(-c3c(C(F)(F)F)cc4c(NC5CC6CC[C@H]5N6)nc(OCC56CCCN5CCC6)nc4c3F)ccc(F)c2s1 (some centres unmarked) [Compound 266] | 1 to 10 µM | 100 to 1000 nM |

| SMILES | IC50 [1] | IC50 [2] |
| --- | --- | --- |
| CN(c1nc(OCC23CCCN2CCC3)nc2c(F)c(-c3ccc(F)c4sc(N)nc34)c(C(F)(F)F)cc12)C1CC2CC[C@@H](C1)N2 (some centres unmarked) [Compound 268] | 1 to 10 µM | 1000 to 10000 nM |
| NCC(=O)N1C2CCC1CN(c1nc(OC[C@@]34CCCN3C[C@H](F)C4)nc3c(F)c(-c4ccc(F)c5sc(N)nc45)c(C(F)(F)F)cc13)C2 [Compound 272] | 1 to 10 µM | 100 to 1000 nM |
| NC(=O)N1C2CCC1CN(c1nc(OC[C@@]34CCCN3C[C@H](F)C4)nc3c(F)c(-c4ccc(F)c5sc(N)nc45)c(C(F)(F)F)cc13)C2 [Compound 273] | 1 to 10 µM | 1000 to 10000 nM |
| CN(c1nc(OCC23CCCN2CCC3)nc2c(F)c(-c3ccc(F)c4sc(N)nc34)c(C(F)(F)F)cc12)C1CCNCC1 [Compound 280] | 1 to 10 µM | 1000 to 10000 nM |
| COc1cc2c(N3C[C@@H](C)NC[C@@H]3C)nc(OC[C@@]34CCCN3C[C@H](F)C4)nc2c(F)c1-c1ccc(F)c2sc(N)nc12 [Compound 281, 4-(4-((2S,5R)-2,5-dimethylpiperazin-1-yl)-8-fluoro-2-(((2R,7aS)-2-fluorotetrahydro-1H-pyrrolizin-7a(5H)-yl)methoxy)-6-methoxyquinazolin-7-yl)-7-fluorobenzo[d]thiazol-2-amine] | 10 to 30 µM | 10000 to 30000 nM |
| C[C@@H]1CN(c2nc(OC[C@@]34CCCN3C[C@H](F)C4)nc3c(F)c(-c4ccc(F)c5sc(N)nc45)c(OC(F)F)cc23)[C@@H](C)CN1 [Compound 282, 4-(6-(difluoromethoxy)-4-((2S,5R)-2,5-dimethylpiperazin-1-yl)-8-fluoro-2-(((2R,7aS)-2-fluorotetrahydro-1H-pyrrolizin-7a(5H)-yl)methoxy)quinazolin-7-yl)-7-fluorobenzo[d]thiazol-2-amine] | 1 to 10 µM | 1000 to 10000 nM |
| CO[C@@H]1C[C@@H](COc2nc(N3CC4CCC(C3)N4)c3cc(C(F)(F)F)c(-c4ccc(F)c5sc(N)nc45)c(F)c3n2)N(C)C1 [Compound 284] | 0.1 to 1 µM | 100 to 1000 nM |
| Nc1nc2c(-c3c(C(F)(F)F)cc4c(NC5C[C@H]6CCC5N6)nc(OCC56CCCN5CCC6)nc4c3F)ccc(F)c2s1 (some centres unmarked) [Compound 286] | 0.1 to 1 µM | 100 to 1000 nM |
| CN(c1nc(OC[C@@]23CCCN2C[C@H](F)C3)nc2c(F)c(-c3ccc(F)c4sc(N)nc34)c(C(F)(F)F)cc12)C1C2C[C@H]1CN2 (some centres unmarked) [Compound 288] | 1 to 10 µM | 100 to 1000 nM |
| C[C@@H]1CNC[C@@H]1N(C)c1nc(OC[C@@]23CCCN2C[C@H](F)C3)nc2c(F)c(-c3ccc(F)c4sc(N)nc34)c(C(F)(F)F)cc12 [Compound 292] | 1 to 10 µM | 1000 to 10000 nM |
| CC(F)(F)c1cc2c(N3CCNCC3)nc(OCC34CCCN3CCC4)nc2c(F)c1-c1ccc(F)c2sc(N)nc12 [Compound 295, 4-(6-(1,1-difluoroethyl)-8-fluoro-4-(piperazin-1-yl)-2-((tetrahydro-1H-pyrrolizin-7a(5H)-yl)methoxy)quinazolin-7-yl)-7-fluorobenzo[d]thiazol-2-amine] | 1 to 10 µM | 1000 to 10000 nM |
| C[C@@H]1CN(c2nc(OC[C@@]34CCCN3C[C@H](F)C4)nc3c(F)c(-c4ccc(F)c5sc(N)nc45)c(C(F)F)cc23)[C@@H](C)CN1 [Compound 302] | 1 to 10 µM | 1000 to 10000 nM |
| Nc1nc2c(-c3c(C(F)(F)F)cc4c(N5CCC6(CNC6)C5)nc(OCC56CCCN5CCC6)nc4c3F)ccc(F)c2s1 [Compound 307] | 1 to 10 µM | 100 to 1000 nM |
| Nc1nc2c(-c3c(C(F)(F)F)cc4c(N5CCC6(CCNC6)CC5)nc(OCC56CCCN5CCC6)nc4c3F)ccc(F)c2s1 [Compound 308] | 1 to 10 µM | 100 to 1000 nM |
| CN(c1nc(OC[C@@]23CCCN2C[C@H](F)C3)nc2cc(-c3ccc(F)c4sc(N)nc34)c(C(F)(F)F)cc12)[C@H]1CNC[C@@H]1F [Compound 362] | 10 to 30 µM | 10000 to 30000 nM |
